Results from patent publication EP2433948A1, “Use of a new class of nucleotide sugar as antibiotic or cytostatic agent” (Max-Planck-Gesellschaft zur Förderung der Wissenschaften …, priority 2010, dated 2012).

Biological target: E. coli MurA (Escherichia coli, UniProt P0A749)
Assay: MurA activity/inhibition assay (phosphate release coupled to PNPase cleavage of fluorescent 7-methylguanosine)
Type: biochemical
Description: • (a) MurA performs the first step of UDP-muramic acid biosynthesis. After sequential binding of UNAG and phosphoenolpyruvate, a tetrahedral intermediate is formed that yields enolpyruvyl-UNAG after cleavage of inorganic phosphate. UNAG-3P most likely mimics this tetrahedral intermediate and thereby inhibits MurA catalysis by a competitive binding mechanism. (b) Determination of the Ki of UNAG-3P for MurA. Enolpyruvyl-UNAG formation catalyzed by MurA from E. coli in presence of PEP and UNAG-3P and varying UNAG concentrations under steady state conditions. MurA enzyme kinetics were followed by coupling the reaction to phosphate dependent cleavage of fluorescent 7-methylguanosine by nucleoside phosphorylase resulting in a strong decrease of the fluorescence at 400 nm (λexc = 300 nm). The UNAG-3P concentrations for each saturation curve were 0 µM (●), 15 µM (□) and 30 µM (Δ). A Lineweaver-Burk plot is shown as inset.
The enolpyruvyl activity of E. coli MurA was monitored by coupling phosphate release to cleavage of fluorescent 7-methylguanosine (Sigma) by bacterial purine-nucleoside phosphorylase (PNPase) (Sigma). […] The reactions were monitored by the decrease in fluorescence at 400 nm with excitation set to 300 nm in a FluoroMax-3 spectrofluorometer (HORIBA Jobin Yvon) with excitation and emission bandwidths of 5 nm. […]

Chain of E. coli MurA (P0A749 whole entry): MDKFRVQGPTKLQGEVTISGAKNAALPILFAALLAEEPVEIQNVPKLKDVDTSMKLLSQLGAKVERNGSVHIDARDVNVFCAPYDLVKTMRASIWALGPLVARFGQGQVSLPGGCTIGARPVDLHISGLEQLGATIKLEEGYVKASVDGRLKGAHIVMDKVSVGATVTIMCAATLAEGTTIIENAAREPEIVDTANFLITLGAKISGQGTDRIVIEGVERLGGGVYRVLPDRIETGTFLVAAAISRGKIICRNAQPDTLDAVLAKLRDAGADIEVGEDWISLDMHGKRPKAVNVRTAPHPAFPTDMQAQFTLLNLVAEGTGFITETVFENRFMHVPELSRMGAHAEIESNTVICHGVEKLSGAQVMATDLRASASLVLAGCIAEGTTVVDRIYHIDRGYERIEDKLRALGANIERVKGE

SMILES: CC(=O)N[C@H]1[C@@H](OP(=O)(O)OP(=O)(O)OC[C@H]2O[C@@H](n3ccc(=O)[nH]c3=O)[C@H](O)[C@@H]2O)O[C@H](CO)[C@@H](O)[C@@H]1OP(=O)(O)O [UNAG-3P, Uridinediphosphate-2-N-acetyl-3-phosphate-glucosamine]
- Ki: 7 µM
